Results on 24 compounds are retold here after patent US4906753A, “Preparation of 2,6-disubstituted-5-cyano-4-pyrimidinyloxyacetic acid aldose reductase inhibitors” (American Home Products Corporation, priority 1988, dated 1990).

Structures are written as SMILES. Read-outs that look alike come from different tables or passages of the source.

The target in test [1] is T1, aldose reductase (Bos taurus, UniProt P16116).
T1 construct: preparation of the enzyme from bovine lens; from tissue; host or cells: bovine lens
Kind of test: in vitro aldose reductase inhibition (modified Hayman and Kinoshita procedure). The format is biochemical, bovine (lens). The note with it: for inhibition at 10 µM: read-out: % Inhibition IN VITRO 10^-5 M; for inhibition at 1 µM: 10^-6 M; for inhibition at 0.1 µM: 10^-7 M. From the text:
In the present case the procedure of Hayman and Kinoshita was modified in that the final chromatography step was omitted in the preparation of the enzyme from bovine lens.

For another test, the system named is galactosemic rats. Briefly: lowering of dulcitol (galactitol) accumulation in tissues of galactosemic rats. In kind it is in vivo, rat (male Sprague-Dawley). The note with it: for % Lowering dulcitol accumulation IN VIVO, D: Table 1, diaphragm. Here is the method:
Such experiments are exemplified hereinbelow after the listing of the following general comments pertaining to these experiments:
Male Sprague-Dawley rats, weighing approximately 90 grams were separated into groups of equal average body weight, with six animals per group. The animals were housed in cages of six animals each and maintained on 12 hour night/12 hour day cycles. Except as otherwise noted, the animals were given food and water ad libitum.
On day 1, the galactosemic control group and all drug-treated groups were given access to 20% galactose chow (Bio-Serv, Frenchtown, NJ). Animals in the control group were given access to 20% glucose chow (Bio-Serv). Test compounds were administered either in the diet or by gavage as a suspension in 2% Tween 80 in saline. In experiments, in which gavage dosing was used, the animals were administered the test compound daily at approximately the same hour each day. Food intake and body weight were determined twice during the course of the experiment. In cases in which the compound was administered in the diet, the average dose was calculated on the basis of the actual average food intake during the experiment.
On the morning of day 5, all animals were fasted; beginning two hours later the animals were decapitated and the lenses, sciatic nerves, and a 50-100 mg portion of the diaphragm were removed, weighed, and frozen in porcelain plates on dry ice.
Only two minor reagent changes were made: (a) the rinsing mixture was an aqueous 5% (w/v) trichloroacetic acid solution and (b) the stock solution was prepared by dissolving 25 mg of dulcitol in 100 mL of an aqueous trichloroacetic acid solution. [N.B.: For each experiment the average value found in the tissue from rats fed the glucose diet was subtracted from the individual values found in the corresponding tissue in galactose-fed rats to obtain the amount of polyol accumulated.]
The figures under L, N and D represent the percentage decrease of galactitol accumulation in the tissues of the lens, sciatic nerve, and diaphragm, respectively, for treated rats as compared to untreated rats.

In test [2] the test system is aldose reductase. The note with it: reported in U.S. Pat. No. 4,568,693; cited from earlier work.

With `CC(C)Sc1nc(C(C)(C)C)nc(OCC(=O)O)c1C#N` [Example 12 (Table 1)], the inhibition at 10 µM on aldose reductase [1] (Table 1, 10^-5 M) was determined as 92%. On aldose reductase [1] (Table 1), this compound had an inhibition at 1 µM of 91% and an inhibition at 0.1 µM of 89%. In addition, the “% Lowering dulcitol accumulation IN VIVO, D” value in the test on galactosemic rats (82 mg/kg) came out at 19%.

Consider `CSc1nc(-c2ccccc2)nc(OCC(=O)O)c1C#N` [Example 14 (Table 1)], for which the inhibition at 10 µM at aldose reductase [1] (Table 1, 10^-5 M) is 92%. Further, on aldose reductase [1] (Table 1), at 1 µM the inhibition was 87% and testing at 0.1 µM gave an inhibition of 75%. In addition, the “% Lowering dulcitol accumulation IN VIVO, D” value in the test with galactosemic rats (96 mg/kg) worked out at 55%.

Take `N#Cc1c(OCC(=O)O)nc(C2CCCCC2)nc1SCc1ccccc1` [Example 8 (Table 1)]: on aldose reductase [1] (Table 1, 10^-5 M), the inhibition at 10 µM was found to be 95%. For the same compound, at aldose reductase [1] (Table 1), the inhibition at 1 µM stood at 91% and the inhibition at 0.1 µM is 73%.

Consider `CCCCCCSc1nc(C(C)(C)C)nc(OCC(=O)O)c1C#N` [Example 11 (Table 1)], for which the “% Lowering dulcitol accumulation IN VIVO, D” value in the test with galactosemic rats (112 mg/kg) was 60%.

Consider `CSc1nc(-c2cccs2)nc(OCC(=O)O)c1C#N` [Example 17 (Table 1)], for which, on aldose reductase [1] (Table 1), testing at 1 µM gave an inhibition of 97% and the inhibition at 0.1 µM came to 92%. The inhibition at 10 µM at aldose reductase [1] amounted to 98%.

In the case of `CC(C)c1nc(-c2cccc3c(Br)cccc23)nc(OCC(=O)O)c1C#N` [Example 6 (Table 2)], the inhibition at 10 µM on aldose reductase [1] (Table 2, 10^-5 M) was 94%. For the same compound, at aldose reductase [1] (Table 2), the inhibition at 1 µM came out at 90% and 0.1 µM produced 53% inhibition.

Consider `Cc1nc(-c2cccc3ccccc23)nc(OCC(=O)O)c1C#N` [Example 3 (Table 2)], for which, on aldose reductase [1] (Table 2, 10^-5 M), the inhibition at 10 µM stood at 93%. In addition, on aldose reductase [1] (Table 2), testing at 1 µM gave an inhibition of 85% and the inhibition at 0.1 µM was found to be 46%.

As to `CC(C)(C)c1nc(OCC(=O)O)c(C#N)c(SCc2ccc(Br)cc2)n1` [Example 10 (Table 1)], the inhibition at 10 µM at aldose reductase [1] (Table 1, 10^-5 M) was found to be 95%. On aldose reductase [1] (Table 1), this compound yielded an inhibition at 1 µM of 95% and an inhibition at 0.1 µM of 95%. The “% Lowering dulcitol accumulation IN VIVO, D” value with galactosemic rats (135 mg/kg) was 58%.

As for `CSc1nc(CC(C)(C)C)nc(OCC(=O)O)c1C#N` [Example 4 (Table 1)], on aldose reductase [1] (Table 1, 10^-5 M), the inhibition at 10 µM stood at 95%. In addition, on aldose reductase [1] (Table 1), the inhibition at 1 µM was 96% and at 0.1 µM the inhibition was 85%. Further, the “% Lowering dulcitol accumulation IN VIVO, D” value in the test with galactosemic rats (98 mg/kg) came out at 22%.

For `Cc1nc(-c2ccccc2)nc(OCC(=O)O)c1C#N`, the inhibition at 10 µM at aldose reductase [1] (Table 2, 10^-5 M) came to 92%. On aldose reductase [1] (Table 2), this compound returned an inhibition at 1 µM of 88% and an inhibition at 0.1 µM of 79%.

As to `COc1ccc2c(C(=S)N(C)CC(=O)O)cccc2c1C(F)(F)F` [tolrestat, N-[[6-methoxy-5-(trifluoromethyl)-1-naphthalenyl]-thioxomethyl]-N-methylglycine, reference compound], in the test on aldose reductase [2], the “inhibitor of aldose reductase” value is on record as “effective inhibitor of aldose reductase”.

As for `CCCc1nc(OCC(=O)O)c(C#N)c(SC)n1` [Example 7 (Table 1)], the inhibition at 10 µM on aldose reductase [1] (Table 1, 10^-5 M) was 92%. On aldose reductase [1] (Table 1), the inhibition at 1 µM came out at 89% and at 0.1 µM the inhibition was 74%.

On aldose reductase [1] (Table 1), `CC(C)(C)c1nc(OCC(=O)O)c(C#N)c(SCc2ccc(Br)cc2F)n1` [Example 2 (Table 1)] gave an inhibition at 1 µM of 93% and an inhibition at 0.1 µM of 93%. In addition, the inhibition at 10 µM at aldose reductase [1] was determined as 98%. Further, in the test with galactosemic rats (99 mg/kg), the “% Lowering dulcitol accumulation IN VIVO, D” value is 47%.

With `N#Cc1c(OCC(=O)O)nc(-c2cccc3ccccc23)nc1-c1ccccc1` [Example 5 (Table 2)], at aldose reductase [1] (Table 2, 10^-5 M), the inhibition at 10 µM was found to be 79%. For the same compound, at aldose reductase [1] (Table 2), 1 µM produced 76% inhibition and testing at 0.1 µM gave an inhibition of 53%.

For `CSc1nc(-c2ccc(Br)cc2)nc(OCC(=O)O)c1C#N` [Example 9 (Table 1)], the inhibition at 10 µM at aldose reductase [1] (Table 1, 10^-5 M) amounted to 95%. For the same compound, at aldose reductase [1] (Table 1), the inhibition at 1 µM was determined as 93% and 0.1 µM produced 82% inhibition. For the same compound, the “% Lowering dulcitol accumulation IN VIVO, D” value in the test with galactosemic rats (114 mg/kg) is given as 27%.

As to `CSc1nc(C2CCCCC2)nc(OCC(=O)O)c1C#N` [Example 15 (Table 1)], the inhibition at 10 µM on aldose reductase [1] (Table 1, 10^-5 M) is 90%. At aldose reductase [1] (Table 1), this compound had an inhibition at 1 µM of 90% and an inhibition at 0.1 µM of 74%.

Take `N#Cc1c(OCC(=O)O)nc(-c2ccccc2)nc1-c1ccccc1` [Example 4 (Table 2)]: the inhibition at 0.1 µM at aldose reductase [1] (Table 2) stood at 85%. Also, in the test with galactosemic rats (Table 2, lens, 100 mg/kg), the “% Lowering dulcitol accumulation IN VIVO, L” value is listed as 17%.

For the compound `CC(C)(C)c1nc(OCC(=O)O)c(C#N)c(SCC2CCCCC2)n1` [Example 1 (Table 1), [[5-Cyano-6-[(cyclohexylmethyl)thio]-2-(1,1-dimethylethyl)-4-pyrimidinyl]oxy]acetic Acid], the inhibition at 10 µM on aldose reductase [1] (Table 1, 10^-5 M) was determined as 97%. Further, on aldose reductase [1] (Table 1), the inhibition at 1 µM amounted to 96% and testing at 0.1 µM gave an inhibition of 88%.

With `CSc1nc(C)nc(OCC(=O)O)c1C#N` [Example 13 (Table 1)], the inhibition at 10 µM at aldose reductase [1] (Table 1, 10^-5 M) amounted to 90%. On aldose reductase [1] (Table 1), this compound gave an inhibition at 1 µM of 84% and an inhibition at 0.1 µM of 55%.

For `CSc1nc(Cc2ccccc2)nc(OCC(=O)O)c1C#N`, the inhibition at 10 µM at aldose reductase [1] (Table 1, 10^-5 M) worked out at 91%. For the same compound, on aldose reductase [1] (Table 1), the inhibition at 1 µM worked out at 90% and the inhibition at 0.1 µM is 78%.

At aldose reductase [1] (Table 1), `CSc1nc(C(C)C)nc(OCC(=O)O)c1C#N` [Example 5 (Table 1)] displayed an inhibition at 1 µM of 97% and an inhibition at 0.1 µM of 88%. Moreover, the inhibition at 10 µM on aldose reductase [1] stood at 98%.

Turning to `CC(C)(C)c1nc(OCC(=O)O)c(C#N)c(SCc2ccccc2)n1` [Example 16 (Table 1)], at aldose reductase [1] (Table 1, 10^-5 M), the inhibition at 10 µM turned out to be 86%. Besides, on aldose reductase [1] (Table 1), the inhibition at 1 µM came to 85% and testing at 0.1 µM gave an inhibition of 82%. Moreover, the “% Lowering dulcitol accumulation IN VIVO, D” value with galactosemic rats (97 mg/kg) is reported as 67%.

With `N#Cc1c(Cc2cccc3ccccc23)nc(-c2cccc3c(Br)cccc23)nc1OCC(=O)O` [Example 1 (Table 2), [[2-(5-Bromo-1-naphthalenyl)-5-cyano-6-[(1-naphthalenyl)methyl]-4-pyrimidinyl]oxy]acetic Acid], the inhibition at 10 µM on aldose reductase [1] (Table 2, 10^-5 M) came to 90%. On aldose reductase [1] (Table 2), this compound registered an inhibition at 1 µM of 85% and an inhibition at 0.1 µM of 46%.

Take `CSc1nc(C(C)(C)C)nc(OCC(=O)O)c1C#N` [Example 3 (Table 1)]: the inhibition at 10 µM at aldose reductase [1] (Table 1, 10^-5 M) was found to be 89%. At aldose reductase [1] (Table 1), this compound gave an inhibition at 1 µM of 88% and an inhibition at 0.1 µM of 82%. Further, the “% Lowering dulcitol accumulation IN VIVO, D” value in the test on galactosemic rats (83 mg/kg) is listed as 32%.
